# Laboratory results taken from patent US10179761B2, “Compounds, pharmaceutical composition and their use in treating neurodegenerative diseases” (UNIVERSITE DE LILLE 2 DROIT ET SANTE, priority 2014, dated 2019).
# pKi: −log10 of the molar value. Entries after “also recorded” stand apart in the source; their conditions may differ.
# Legend:
# Male Swiss mice = assay: Dizocilpine-induced learning deficits: step-through passive avoidance test; type: in vivo
# Procedure: The activity of compound 3.1.10 was evaluated on the prevention of the dizocilpine-induced learning deficits measured using two behavioral tests. The present experiment tested if its anti-amnesic activity could be blocked by pretreatment with the reference sigma-1 receptor antagonist NE-100.
# • Sixty (60) mice were used. Behavioral testing started one week after the arrival of the animals in the AMYLGEN animal facility. • 5 treatment groups were designed and used as follows:
# • Vehicle 1 was physiological saline for dizocilpine, DMSO 2% in water for compound 3.1.10 • Animals were used at day 1 in the Y-maze test and at days 2 and 3 in the passive avoidance test, with training at day 2 and retention at day 3. • Test compounds, compound 3.1.10 and/or NE-100 were administered 10 min before dizocilpine (at 0.15 mg/kg i.p.) or vehicle. • Dizocilpine or vehicle 1 was administered 20 min before the Y-maze test session on day 1. • Dizocilpine or vehicle 1 was administered 20 min before the passive avoidance training session on day 2. Drugs were not injected before the retention session on day 3. • The whole experiment program was performed in a single serie experiment. • Treatments were randomized. 2.1.2. Animals
# Male Swiss mice, 6 weeks old and weighing 30-35 g, from JANVIER (Saint Berthevin, France), were housed in groups with access to food and water ad libitum, except during experiments. […]
# The apparatus is a two-compartments (15×20×15 cm high) box with one illuminated with white polyvinylchloride walls and the other darkened with black polyvinylchloride walls and a grid floor. […] The step-through latency (the latency spent to enter the dark compartment) and the number of vocalizations was recorded. […] The step-through latency was recorded up to 300 s. When the mouse entered the dark compartment or 300 s has elapsed (they were therefore manually placed in it), the escape latency (latency to exit from the dark compartment) was recorded up to 300 s.
# They were therefore analyzed using a Kruskal-Wallis non-parametric ANOVA (H value), followed by a Dunn's multiple comparison test.
# SJL/J mice [1] = assay: EAE model, preventive treatment; type: in vivo; conditions: single i.p. injection on day 0, 0.5 or 1 mg/kg; FIG. 3
# Text: (§1) Animals. SJL/J mice were purchased from Janvier (Le Genest-St-Isle, France) and bred under conventional barrier protection at the Pasteur Institute (Lille, France). All experiment protocols and procedures were in compliance with the European Communities Council Directives of 24 Nov. 1986 (86/609/EEC) and were approved by the local ethical committee (CEEA 102009R). Efforts were made to minimize the number of animals used and their suffering. Animals that reached severe hind limb paresis (clinical grade 3) were isolated, and hydration and food access were facilitated.
# (§2) EAE induction and treatment. The method of EAE induction was similar to previously published methods (Lee-Chang et al., Immunol Lett. 2011 Mar. 30; 135(1-2):108-17). […]
# (§3) Body weight and clinical signs of EAE were monitored daily. The severity of clinical symptoms was scored based on a standard neurological scoring system for EAE, as follows: grade 0, no disease; grade 1, moderate tail hypotonia and/or slight clumsy gait; grade 2, tail atony and/or clumsy gait; grade 3, severe hind limb paresis; grade 4, paraplegia; grade 5, tetraplegia. […]
# SJL/J mice [2] = assay: EAE model, curative treatment; type: in vivo; conditions: p.o. from onset of EAE (grade 2) for 14 days, 0.5 or 1 mg/kg; followed 70 days; FIG. 4
# Text: as §1, §2, §3
# σ1 receptors = σ1 receptors (Homo sapiens (Human), UniProt Q99720); assay: σ1 binding assay, Jurkat cell membranes, [3H](+)-pentazocine; conditions: hydrochloride salts; mean of 2 or 3 independent experiments; Ki from IC50 (Cheng-Prusoff); read-out: Sigma 1 Ki
# σ1 receptors, sequence (Q99720 whole entry): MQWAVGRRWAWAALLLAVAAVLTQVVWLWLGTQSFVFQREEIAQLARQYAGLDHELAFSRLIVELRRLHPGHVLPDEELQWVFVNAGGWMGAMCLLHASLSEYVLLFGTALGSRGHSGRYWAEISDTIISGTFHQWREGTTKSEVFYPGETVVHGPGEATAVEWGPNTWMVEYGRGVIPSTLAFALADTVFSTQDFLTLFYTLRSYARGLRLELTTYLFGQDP
structure (smiles),measurement,setting,value
"CN(CCCNC(=O)c1ccc(Cl)cc1)Cc1ccccc1 [Compound 3.1.10, N-[3-(benzylmethylamino)propyl]-4-chlorobenzamide]","dizocilpine-induced learning deficits, passive avoidance test","Male Swiss mice; 0.5 mg/kg i.p., 10 min before dizocilpine 0.15 mg/kg i.p.",significantly attenuated
same,"beneficial effect of compound 3.1.10 with NE-100, passive avoidance test",Male Swiss mice; 3.1.10 0.5 mg/kg + NE-100 3 mg/kg + dizocilpine 0.15 mg/kg i.p.,prevented by treatment with the sigma-1 antagonist NE-100
same,"EAE clinical course, preventive treatment",SJL/J mice [1],Amelioration of EAE; also recorded: delaying the onset of EAE
same,"EAE clinical course, curative treatment",SJL/J mice [2],Amelioration of EAE; also recorded: alleviating the symptoms of EAE
same,pKi,σ1 receptors,8.49
